Assay results from US10450326B2, “Thiazolopyrimidinone compounds and preparation methods and use thereof” (PEKING UNIVERSITY, priority 2015, dated 2019).

Molecular target: T1, α7 nAChR (Homo sapiens, UniProt P36544)
T1 construct: expressed in transfected cells; host or cells: Xenopus oocytes (cRNA injection)
Assay: α7 nAChR positive allosteric modulator activity assay, voltage clamp in Xenopus oocytes with 100 μM ACh
Assay type: cell-based
Conditions: for activity at 10 µM: at 10 μM compound, current induced by 100 μM ACh, Xenopus oocytes expressing α7 nAChR, read-out: Max Mod (%, at 10 μM); for EC50: potentiation of current induced by 100 μM ACh, Hill equation fit
Experimental: The experimental process was as follows:
(1) Xenopus oocytes were injected with cRNA encoding α7 nAChR in order to express α7 nAChR on the cell membrane successfully;
(2) 100 μM ACh alone was added, and the α7 nAChR characteristic current caused by it was recorded as a control;
(5) The oocytes were incubated for 1 min with 10 μM compound, then 10 µM compound and 100 μM ACh were added simultaneously and the current induced by ACh was recorded at this time;
(6) The differences between the two currents in terms of peak intensity and duration were compared, with the ratio of peak intensity of the two currents representing the adjustment effect (Enhance Rate), in order to determine whether the compound had PAM activity, if the activity was good, then the subsequent test was carried out;
(7) Concentration gradient was set and the effects of compounds at different concentrations on the α7 nAChR characteristic current induced by 100 μM ACh were evaluated. Several determinations were carried out at the same concentration, and the results were presented in the form of “mean±standard deviation”;
(8) The EC50 (median maximum effect concentration) values and Max mod (the current amplitude caused by the maximal degree of adjustable endogenous agonist acetylcholine) values of the compounds and other activity data were obtained by Hill equation Inormalized=Emax/(1+(EC50/C)nH).
The amplitude of the peak current is only normalized by the amplitude produced by 100 μM ACh and different concentrations of LD486. […] It can be seen from FIG. 3 that the Hill equation is used to fit the dose-response curve and calculate the kinetic parameters.

T1 sequence (P36544 23-502): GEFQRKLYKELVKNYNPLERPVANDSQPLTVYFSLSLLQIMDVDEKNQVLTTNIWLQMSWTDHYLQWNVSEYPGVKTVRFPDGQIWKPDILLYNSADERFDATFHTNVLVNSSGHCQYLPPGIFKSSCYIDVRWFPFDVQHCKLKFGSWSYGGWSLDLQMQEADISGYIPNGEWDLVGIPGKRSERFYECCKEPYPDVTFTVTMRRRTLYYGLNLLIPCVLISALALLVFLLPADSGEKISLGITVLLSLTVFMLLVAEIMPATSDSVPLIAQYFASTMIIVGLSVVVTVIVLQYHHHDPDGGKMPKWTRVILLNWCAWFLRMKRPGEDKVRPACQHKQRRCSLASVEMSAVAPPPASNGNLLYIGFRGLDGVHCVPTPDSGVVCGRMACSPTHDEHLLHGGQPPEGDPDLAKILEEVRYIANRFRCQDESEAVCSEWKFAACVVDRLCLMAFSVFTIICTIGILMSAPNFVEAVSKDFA

Row | SMILES | activity at 10 µM [%] | EC50 [µM]
1 | Cc1nc(Cl)cc(Nc2nc3nnn(-c4c(C)cccc4Cl)c(=O)c3s2)n1 [JWX-A3N, 6-((6-Chloro-2-methylpyrimidin-4-yl)amino)-3-(2-chloro-6-methylphenyl)thiazolo[4,5-d][1,2,3]triazin-4(3H)-one] | 110 | –
2 | Cc1ccc(Nc2nc3ncn(-c4c(C)cccc4Cl)c(=O)c3s2)cc1F [JWX-A0108, 6-(2-Chloro-6-methylphenyl)-2-((3-fluoro-4-methylphenyl)amino)thiazolo[4,5-d]pyrimidin-7(6H)-one] | – | 3.39
3 | Cc1cccc(Cl)c1-n1cnc2nc(NC(=O)c3ccccc3)sc2c1=O [JWX-A0121, N-(6-(2-Chloro-6-methylphenyl)-7-oxo-6,7-dihydrothiazolo[4,5-d]pyrimidin-2-yl)benzamide] | 200 | 10
4 | Cc1ccc(C(=O)Nc2nc3ncn(-c4c(C)cccc4Cl)c(=O)c3s2)cc1 [JWX-A0310, N-(6-(2-Chloro-6-methylphenyl)-7-oxo-6,7-dihydrothiazolo[4,5-d]pyrimidin-2-yl)-4-methylbenzamide] | 450 | 10
5 | COc1ccc(C(=O)Nc2nc3ncn(-c4c(C)cccc4Cl)c(=O)c3s2)cc1 [JWX-A0312, N-(6-(2-Chloro-6-methylphenyl)-7-oxo-6,7-dihydrothiazolo[4,5-d]pyrimidin-2-yl)-4-methoxybenzamide] | 630 | 10
6 | Cc1ccc(Nc2nc3ncn(-c4c(C)cccc4Cl)c(=O)c3s2)cc1C [JWX-A0315, 6-(2-Chloro-6-methylphenyl)-2-((3,4-dimethylphenyl)amino)thiazolo[4,5-d]pyrimidin-7(6H)-one] | 650 | 6.99
7 | Cc1cc(Nc2nc3ncn(-c4c(C)cccc4Cl)c(=O)c3s2)cc(C)c1C [JWX-A0322, 6-(2-Chloro-6-methylphenyl)-2-((3,4,5-trimethylphenyl)amino)thiazolo[4,5-d]pyrimidin-7(6H)-one] | 600 | 3.15
8 | Cc1ccc(Nc2nc3ncn(-c4ccccc4C)c(=O)c3s2)cc1 [JWX-A0414, 6-(o-Tolyl)-2-(p-tolylamino)thiazolo[4,5-d]pyrimidin-7(6H)-one] | 150 | 10
9 | Cc1ccc(Nc2nc3ncn(-c4ccccc4Cl)c(=O)c3s2)cc1 [JWX-A0415, 6-(2-Chlorophenyl)-2-(p-tolylamino) thiazolo[4,5-d]pyrimidin-7(6H)-one] | 680 | 10
10 | Cc1ccccc1Nc1nc2ncn(-c3c(C)cccc3Cl)c(=O)c2s1 [JWX-A0602, 6-(2-Chloro-6-methylphenyl)-2-(o-tolylamino)thiazolo[4,5-d]pyrimidin-7(6H)-one] | 300 | 10
11 | Cc1cccc(Cl)c1-n1cnc2nc(Nc3ccccc3F)sc2c1=O [JWX-A0611, 6-(2-Chloro-6-methylphenyl)-2-((2-fluorophenyl)amino)thiazolo[4,5-d]pyrimidin-7(6H)-one] | 200 | 10
12 | Cc1cccc(Cl)c1-n1cnc2nc(NC(=O)c3ccc(F)cc3)sc2c1=O [JWX-A0617, N-(6-(2-Chloro-6-methylphenyl)-7-oxo-6,7-dihydrothiazolo[4,5-d]pyrimidin-2-yl)-4-fluorobenzamide] | 150 | 10
13 | Cc1nc(Nc2nc3ncn(-c4c(C)cccc4Cl)c(=O)c3s2)cc(N2CCN(CCO)CC2)n1 [JWX-A0728, 6-(2-Chloro-6-methylphenyl)-2-((6-(4-(2-hydroxyethyl)piperazin-1-yl)-2-methylpyrimidin-4-yl)amino)thiazolo[4,5-d]pyrimidin-7(6H)-one] | 110 | –
14 | Cc1cccc(Cl)c1-n1cnc2nc(Nc3ccccc3)sc2c1=O [JWX-A0824, 6-(2-Chloro-6-methylphenyl)-2-(phenylamino)thiazolo[4,5-d]pyrimidin-7(6H)-one] | 300 | 10
15 | Cc1cccc(Cl)c1-n1cnc2nc(Nc3ccccn3)sc2c1=O [JWX-A0828, 6-(2-Chloro-6-methylphenyl)-2-(pyridin-2-ylamino)thiazolo[4,5-d]pyrimidin-7(6H)-one] | 110 | –
16 | Cc1cccc(Cl)c1-n1cnc2nc(O)sc2c1=O [JWX-A0903, 6-(2-Chloro-6-methylphenyl)-2-hydroxythiazolo[4,5-d]pyrimidin-7(6H)-one] | 110 | –
17 | Cc1cccc(Cl)c1-n1cnc2nc(Nc3cc(Cl)ncn3)sc2c1=O [JWX-A0912, 6-(2-Chloro-6-methylphenyl)-2-((6-chloropyrimidin-4-yl)amino)thiazolo[4,5-d]pyrimidin-7(6H)-one] | 200 | 10

Row | SMILES | activity at 10 µM [%] | EC50 [µM]
18 | Cc1cccc(Cl)c1-n1cnc2nc(Nc3ccc(Cl)nn3)sc2c1=O [JWX-A0918, 6-(2-Chloro-6-methylphenyl)-2-((6-chloropyridazin-3-yl)amino)thiazolo[4,5-d]pyrimidin-7(6H)-one] | 110 | –
19 | Cc1nc(Nc2nc3ncn(-c4c(C)cccc4Cl)c(=O)c3s2)cc(N2CCN(C)CC2)n1 [JWX-A1022, 6-(2-Chloro-6-methylphenyl)-2-((2-methyl-6-(4-methylpiperazin-1-yl)pyrimidin-4-yl)amino)thiazolo[4,5-d]pyrimidin-7(6H)-one] | 110 | –
20 | Cc1ccc(Nc2nc3ncn(-c4c(C)cccc4Cl)c(=O)c3s2)cc1 [JWX-A1029, 6-(2-Chloro-6-methylphenyl)-2-(p-tolylamino)thiazolo[4,5-d]pyrimidin-7(6H)-one] | – | 7.47
21 | COc1ccc(Nc2nc3ncn(-c4c(C)cccc4Cl)c(=O)c3s2)cc1 [JWX-A1030, 6-(2-Chloro-6-methylphenyl)-2-((4-methoxyphenyl)amino)thiazolo[4,5-d]pyrimidin-7(6H)-one] | 200 | 10
22 | Cc1cccc(Cl)c1-n1cnc2nc(Nc3ccc(Cl)cc3)sc2c1=O [JWX-A1104, 6-(2-Chloro-6-methylphenyl)-2-((4-chlorophenyl)amino)thiazolo[4,5-d]pyrimidin-7(6H)-one] | 200 | 10
23 | Cc1cccc(Cl)c1-n1cnc2nc(Nc3ccc(Br)cc3)sc2c1=O [JWX-A1105, 6-(2-chloro-6-methylphenyl)-2-((4-Bromophenyl)amino)-thiazolo[4,5-d]pyrimidin-7(6H)-one] | 150 | 10
24 | COc1cccc(Nc2nc3ncn(-c4c(C)cccc4Cl)c(=O)c3s2)c1 [JWX-A1106, 6-(2-chloro-6-methylphenyl)-2-((3-methoxyphenyl)amino)thiazolo[4,5-d]pyrimidin-7(6H)-one] | 150 | 10
25 | Cc1cccc(Cl)c1-n1cnc2nc(Nc3cccc(Br)c3)sc2c1=O [JWX-A1113, 6-(2-chloro-6-methylphenyl)-2-((3-Bromophenyl)amino)-thiazolo[4,5-d]pyrimidin-7(6H)-one] | 200 | 10
26 | Cc1cccc(Cl)c1-n1cnc2nc(N(C)c3ccccc3)sc2c1=O [JWX-A1114, 6-(2-Chloro-6-methylphenyl)-2-(methyl(phenyl)amino)thiazolo[4,5-d]pyrimidin-7(6H)-one] | 150 | 10
27 | Cc1cccc(Cl)c1-n1cnc2nc(Nc3cccc(Cl)c3)sc2c1=O [JWX-A1116, 6-(2-Chloro-6-methylphenyl)-2-((3-chlorophenyl)amino)thiazolo[4,5-d]pyrimidin-7(6H)-one] | 300 | 10
28 | Cc1cccc(Cl)c1-n1cnc2nc(Nc3ccc(F)cc3)sc2c1=O [JWX-A1119, 6-(2-Chloro-6-methylphenyl)-2-((4-fluorophenyl)amino)thiazolo[4,5-d]pyrimidin-7(6H)-one] | 250 | 10
29 | Cc1cccc(Nc2nc3ncn(-c4c(C)cccc4Cl)c(=O)c3s2)c1 [JWX-A1211, 6-(2-Chloro-6-methylphenyl)-2-(m-tolylamino)thiazolo[4,5-d]pyrimidin-7(6H)-one] | – | 8.39
30 | Cc1cccc(Cl)c1-n1cnc2nc(Nc3cccc(F)c3)sc2c1=O [JWX-A1214, 6-(2-Chloro-6-methylphenyl)-2-((3-fluorophenyl)amino)thiazolo[4,5-d]pyrimidin-7(6H)-one] | 450 | 7.65
31 | Cc1cccc(Cl)c1-n1cnc2nc(SCc3ccccc3)sc2c1=O [JWX-A1223, 6-(2-chloro-6-methylphenyl)-2-(Benzylthio)thiazolo[4,5-d]pyrimidin-7(6H)-one] | – | 1.26
32 | Cc1cccc(Cl)c1-n1cnc2nc(NCc3ccccc3)sc2c1=O [JWX-A1228, 6-(2-chloro-6-methylphenyl)-2-(Benzylamino)thiazolo[4,5-d]pyrimidin-7(6H)-one] | 110 | –
33 | CCCNc1nc2ncn(-c3c(C)cccc3Cl)c(=O)c2s1 [JWX-A1229, 6-(2-Chloro-6-methylphenyl)-2-(n-propylamino)thiazolo[4,5-d]pyrimidin-7(6H)-one] | 110 | –
34 | Cc1cccc(Cl)c1-n1cnc2nc(Nc3ccc(F)c(Cl)c3)sc2c1=O [JWX-A-C0104, 6-(2-chloro-6-methylphenyl)-2-((3-chloro-4-fluorophenyl)amino)thiazolo[4,5-d]pyrimidin-7(6H)-one] | 500 | 10
